Test results reported in patent publication EP0680339B1, “ECTOPARASITICIDAL FORMULATION” (priority 1993, dated 1994).

Assays:
[1] = tested on: sheep body louse D. ovis; assay: Example 3, varying concentration of active: lice counts on sheep; type: in vivo, Damalinia ovis
Procedure: Testing for ectoparasite infestation was carried out by counting the number of parasites present in 20 partings taken on each side of the sheep (40 partings in total).
In order to determine the minimum effective concentration of active agent possible upon application of 150 mL/50 kg sheep, the following formulations were prepared: […]
For each of Examples 3A-E, the treatments were applied immediately after shearing along the backline in 4-6 strips (depending on the volume to be applied. Details are as follows:
Treatments were applied using the NZ Protector dial-a-dose drench/pour-on gun.
Once treated, each group was penned separately in electrified paddocks where they were kept for the duration of the trial.
Lice counts were performed pre-shearing 7, 14, 21, 28, 35 and 42 days after treatment using the 20 partings per side technique.
Percentage reduction in lice counts was calculated using the change in lice counts for the control group as a correction factor, using the formula given in example 1.

[2] = Example 6, degree of translocation: diazinon levels in wool and skin scrapings; type: in vivo, sheep; settings: for DIAZINON (PPM) - WHOLE WOLL BELLY-LINE MEAN / DIAZINON (PPM) - WHOLE WOLL MIDLINE MEAN: Example 6 formulation, 3mL per kg
Procedure: A 3 year old merino was shorn, weighed and treated immediately with the diazinon spray-on. It had not received any insecticide treatment for 12 months. The sheep weighed 37 kg and was treated with 110mL of the product. A wide band was applied from high on the neck, behind the ears, to the butt of the tail at a dosage rate of 3mL per kg bodyweight.
The animal was hand restrained during treatment and placed under cover in a pen with mesh floor and sides for the duration of the trial.
During and after treatment, the sheep had no contact with other treated animals and was not exposed to any rain.
On advice from the State Chemistry Laboratory, Department of Agriculture, Victoria, approximately 2cm square scrapings of wool and skin were taken as follows:
The values (PPM diazinon) are reported on a whole wool basis.
The approximate concentration in wool grease can be calculated on the basis of the average wool grease content of the wool is 18.4% w/w ie., multiply the individual results by a factor of 5.4.

CCOP(=S)(OCC)Oc1cc(C)nc(C(C)C)n1 [Diazinon]
eradication of the sheep body louse D. ovis ([1]; 10 mg/kg (0.33% w/w)): failed to eradicate
eradication of the sheep body louse D. ovis ([1]; 15 mg/kg (0.5% w/w)): failed to eradicate
DIAZINON (PPM) - WHOLE WOLL (MEAN VALUES) BELLY-LINE LEFT ([2]; 1 day post treatment): 407 PPM
DIAZINON (PPM) - WHOLE WOLL (MEAN VALUES) BELLY-LINE RIGHT ([2]; 1 day post treatment): 190 PPM
DIAZINON (PPM) - WHOLE WOLL (MEAN VALUES) MIDLINE LEFT ([2]; 1 day post treatment): 808 PPM
DIAZINON (PPM) - WHOLE WOLL (MEAN VALUES) MIDLINE RIGHT ([2]; 1 day post treatment): 330 PPM
DIAZINON (PPM) - WHOLE WOLL BELLY-LINE MEAN ([2]; 1 day post treatment): 298 PPM
DIAZINON (PPM) - WHOLE WOLL MIDLINE MEAN ([2]; 1 day post treatment): 569 PPM
DIAZINON (PPM) - WHOLE WOLL (MEAN VALUES) BELLY-LINE LEFT ([2]; 3 days post treatment): 185 PPM
DIAZINON (PPM) - WHOLE WOLL (MEAN VALUES) BELLY-LINE RIGHT ([2]; 3 days post treatment): 112 PPM
DIAZINON (PPM) - WHOLE WOLL (MEAN VALUES) MIDLINE LEFT ([2]; 3 days post treatment): 496 PPM
DIAZINON (PPM) - WHOLE WOLL (MEAN VALUES) MIDLINE RIGHT ([2]; 3 days post treatment): 323 PPM
DIAZINON (PPM) - WHOLE WOLL BELLY-LINE MEAN ([2]; 3 days post treatment): 148.5 PPM
DIAZINON (PPM) - WHOLE WOLL MIDLINE MEAN ([2]; 3 days post treatment): 410 PPM
DIAZINON (PPM) - WHOLE WOLL (MEAN VALUES) BELLY-LINE LEFT ([2]; 7 days post treatment): 287 PPM
DIAZINON (PPM) - WHOLE WOLL (MEAN VALUES) BELLY-LINE RIGHT ([2]; 7 days post treatment): 216 PPM
DIAZINON (PPM) - WHOLE WOLL (MEAN VALUES) MIDLINE LEFT ([2]; 7 days post treatment): 503 PPM
DIAZINON (PPM) - WHOLE WOLL (MEAN VALUES) MIDLINE RIGHT ([2]; 7 days post treatment): 237 PPM
DIAZINON (PPM) - WHOLE WOLL BELLY-LINE MEAN ([2]; 7 days post treatment): 251.2 PPM
DIAZINON (PPM) - WHOLE WOLL MIDLINE MEAN ([2]; 7 days post treatment): 370 PPM
diazinon in whole wool, belly-line right rump ([2]; Day 1): 53 PPM
diazinon in the wool grease, belly-line right rump ([2]; Day 1, whole wool value multiplied by 5.4): 286 PPM
